In the supplement of paper PMC5579334:

Key:
[1] = test system: STS26T; assay: relative IC50 (inflection point of fitted dose-response curve, CellTiter-Glo viability, 72 h; top asymptote may be below 50% inhibition); higher = less potent
How it was run: (§1)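 MPNST cell lines and primary human Schwann cells (750–1000 cells per well) went into 384-well plates preprinted with each compound at five concentrations in 10-fold steps. Plates were incubated 72 h at 37 °C, 5% CO2. Viability was read as CellTiter-Glo ATP luminescence, scaled between vehicle and positive-control wells, with duplicates averaged where present. Percent inhibition is at the top concentration; drug sensitivity score and relative IC50 (censored at top concentration) come from four-parameter logistic fits.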

[2] = test system: S462; assay: as above
How it was run: as §1

[3] = test system: HS-Sch-2; assay: as above
How it was run: as §1

[4] = test system: YST-1; assay: as above
How it was run: as §1

[5] = test system: ST8814; assay: as above
How it was run: as §1

[6] = test system: HSC2; assay: as above
How it was run: as §1

[7] = test system: HSC1; assay: as above
How it was run: as §1

[8] = test system: HS-PSS; assay: as above
How it was run: as §1

[9] = test system: S1507-2; assay: as above
How it was run: as §1

[10] = test system: STS26T; assay: relative IC50 (inflection point of fitted dose-response curve, CellTox-Green cytotoxicity, 72 h; top asymptote may be below 50%); higher = less potent
How it was run: (§2)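 MPNST cell lines and primary human Schwann cells were incubated 72 h at 37 °C in 384-well plates holding five 10-fold compound dilutions. CellTox-Green was added before seeding at a final 1:1000 dilution and reported fluorescence from DNA released by disrupted cells. Signals were scaled to vehicle and positive-control wells, and cultures failing plate quality control were dropped. Drug sensitivity score and relative IC50 come from four-parameter logistic fits, with IC50 censored at the top concentration.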

[11] = test system: ST8814; assay: as above
How it was run: as §2

[12] = test system: HSC2; assay: as above
How it was run: as §2

[13] = test system: HSC1; assay: as above
How it was run: as §2

[14] = test system: HS-PSS; assay: as above
How it was run: as §2

Structure (SMILES) | relative IC50 [1] [nM] | relative IC50 [2] [nM] | relative IC50 [3] [nM] | relative IC50 [4] [nM] | relative IC50 [5] [nM] | relative IC50 [6] [nM] | relative IC50 [7] [nM] | relative IC50 [8] [nM] | relative IC50 [9] [nM] | relative IC50 [10] [nM] | relative IC50 [11] [nM] | relative IC50 [12] [nM] | relative IC50 [13] [nM] | relative IC50 [14] [µM]
O=P1(N(CCCl)CCCl)NCCCO1 (stereo unspecified) [Cyclophosphamide] | > 40000 | > 40000 | > 40000 | > 40000 | > 40000 | > 40000 | > 40000 | > 40000 | > 40000 | > 40000 | > 40000 | > 40000 | > 40000 | > 40
Cc1c(CN2CCN(C(=O)[C@H](C)O)CC2)sc2c(N3CCOCC3)nc(-c3cnc(N)nc3)nc12 [GDC-0980] | 486 | 617 |  |  | 1060 | 469 | 636 |  | 447 | > 10000 | 2880 | > 10000 | > 10000 | 
CCOC(=O)CCNc1cc(N2CCc3ccccc3CC2)nc(-c2ccccn2)n1 [GSK-J4] | 5270 | 3740 | 4520 | 4300 | 5900 | 4570 | 4680 | 6010 | 6510 | 14800 | 15500 | 23700 | 23700 | 27.2
CC(C)C[C@H](NC(=O)[C@@H](COC(C)(C)C)NC(=O)[C@H](Cc1ccc(O)cc1)NC(=O)[C@H](CO)NC(=O)[C@H](Cc1c[nH]c2ccccc12)NC(=O)[C@H](Cc1cnc[nH]1)NC(=O)[C@@H]1CCC(=O)N1)C(=O)N[C@@H](CCCNC(=N)N)C(=O)N1CCC[C@H]1C(=O)NNC(N)=O [Goserelin] | > 10000 | > 10000 |  | > 10000 | > 10000 | > 10000 | > 10000 | > 10000 | > 10000 | > 10000 | > 10000 | > 10000 | > 10000 | > 10
CCc1cnn2c(NCc3ccc[n+]([O-])c3)cc(N3CCCC[C@H]3CCO)nc12 [Dinaciclib] | 12.7 | 6.5 | 8.55 | 7.48 | 29.5 | 13.6 | 21.6 | 10.1 | 25.9 | 8.71 | 36.4 | 43.9 | 84.2 | 0.00772
Cc1nc(Nc2ncc(C(=O)Nc3c(C)cccc3Cl)s2)cc(N2CCN(CCO)CC2)n1 [Dasatinib] | 25.8 | 41.3 | 84.9 | 16.8 | 43.9 | 81.7 | 48.7 |  | 53.8 | 52 | 29.4 | > 1000 | > 1000 | > 1
CO[C@H]1C[C@@H]2CC[C@@H](C)[C@@](O)(O2)C(=O)C(=O)N2CCCC[C@H]2C(=O)O[C@H]([C@H](C)C[C@@H]2CC[C@@H](OC(=O)C(C)(CO)CO)[C@H](OC)C2)CC(=O)[C@H](C)/C=C(\C)[C@@H](O)[C@@H](OC)C(=O)[C@H](C)C[C@H](C)/C=C/C=C/C=C/1C [Temsirolimus] | 0.237 | 1.34 | 1.18 | 1.38 | 0.561 | 0.227 | 0.103 | 1.13 | 0.775 | > 100 | > 100 | > 100 | > 100 | > 0.1
O=C(O)CCCCC(CCSCc1ccccc1)SCc1ccccc1 (stereo unspecified) [CPI-613] | > 10000 | > 10000 | > 10000 |  | > 10000 | > 10000 | > 10000 |  | > 10000 | > 10000 | > 10000 | > 10000 | > 10000 | > 10
CO[C@H]1C[C@@H]2CC[C@@H](C)[C@@](O)(O2)C(=O)C(=O)N2CCCC[C@H]2C(=O)O[C@H]([C@H](C)C[C@@H]2CC[C@@H](OCCO)[C@H](OC)C2)CC(=O)[C@H](C)/C=C(\C)[C@@H](O)[C@@H](OC)C(=O)[C@H](C)C[C@H](C)/C=C/C=C/C=C/1C [Everolimus] | 0.14 | 0.537 |  | 5.94 | 0.32 | 0.239 | 0.12 |  | 1.46 | > 100 | > 100 | > 100 | > 100 | > 0.1
Cc1c2oc3c(C)ccc(C(=O)N[C@@H]4C(=O)N[C@H](C(C)C)C(=O)N5CCC[C@H]5C(=O)N(C)CC(=O)N(C)[C@@H](C(C)C)C(=O)O[C@@H]4C)c3nc-2c(C(=O)N[C@@H]2C(=O)N[C@H](C(C)C)C(=O)N3CCC[C@H]3C(=O)N(C)CC(=O)N(C)[C@@H](C(C)C)C(=O)O[C@@H]2C)c(N)c1=O [Dactinomycin] | 2.08 | 1.86 | 1.95 | 0.88 | 3.46 | 0.779 | 0.906 | 5.05 | 5.95 | 3.07 | 49.1 | 8.46 | 12.4 | 0.012
COc1cc2ncnc(Nc3ccc(F)c(Cl)c3)c2cc1OCCCN1CCOCC1 [Gefitinib] | 3770 | 4160 | 1900 | 987 | 3560 | 2690 | 2940 | 1780 | 3600 | 3930 | 2950 | > 10000 | > 10000 | > 10
CS(=O)(=O)N1CCN(Cc2cc3nc(-c4cccc5[nH]ncc45)nc(N4CCOCC4)c3s2)CC1 [Pictilisib] | 310 | 1150 | 1750 | 445 | 789 | 1550 | 1210 | 1110 | 128 | > 10000 | 2280 | > 10000 | > 10000 | > 10
CO[C@@H](C(=O)N1Cc2[nH]nc(NC(=O)c3ccc(N4CCN(C)CC4)cc3)c2C1)c1ccccc1 [Danusertib] | 1230 | 389 | 529 | 57.8 | 1200 | 968 | 759 | 1270 | 641 | 744 | 1170 | 2390 | 2690 | 2.63
O=C(CCCCCCC(=O)Nc1ccc([C@H]2O[C@@H](CSc3nc(-c4ccccc4)c(-c4ccccc4)o3)C[C@@H](c3ccc(CO)cc3)O2)cc1)NO [Tubacin] | 3310 | 3160 | 2800 | 2010 | 2970 | 2970 | 3280 | 1470 | 3190 | 3190 | 3070 | > 10000 | > 10000 | 
Cc1ccc([N+](=O)[O-])cc1S(=O)(=O)N(C)/N=C/c1cnc2ccc(Br)cn12 [PIK-75] | 143 | 186 |  |  | 212 | 161 | 175 |  | 275 | 160 | 567 | 330 | 299 | 
COc1cc(Nc2ncc3c(n2)-c2ccc(Cl)cc2C(c2c(F)cccc2OC)=NC3)ccc1C(=O)O [Alisertib] | 89.6 | 24.8 | 244 | 31.1 | 288 | 26.5 | 53.4 | 1560 | 124 | 40.4 | 265 | > 10000 | > 10000 | > 10
CC(C)c1c(C(=O)Nc2ccccc2)c(-c2ccccc2)c(-c2ccc(F)cc2)n1CC[C@@H](O)C[C@@H](O)CC(=O)O [Atorvastatin] | 2090 | 1280 | 2210 | 2320 | 2450 | 196 | 319 | 1680 | 2500 | 3510 | 3270 | 234 | 368 | > 10
COc1cc2c(Oc3ccc(NC(=O)C4(C(=O)Nc5ccc(F)cc5)CC4)cc3F)ccnc2cc1OCCCN1CCOCC1 [Foretinib] | 209 | 257 | 378 | 275 | 142 | 256 | 238 |  | 138 | 311 | 288 | > 1000 | > 1000 | 
CC(=O)c1c(C)c2cnc(Nc3ccc(N4CCNCC4)cn3)nc2n(C2CCCC2)c1=O [Palbociclib] | 1340 | 855 | 1940 | 1350 | 1740 | 286 | 268 | 1700 | 987 | > 10000 | > 10000 | > 10000 | > 10000 | > 10
CNNCc1ccc(C(=O)NC(C)C)cc1 [Procarbazine] | > 10000 | > 10000 | > 10000 | > 10000 | > 10000 | > 10000 | > 10000 | > 10000 | > 10000 | > 10000 | > 10000 | > 10000 | > 10000 | > 10
COc1cc([C@@H]2c3cc4c(cc3[C@@H](O[C@@H]3O[C@@H]5CO[C@@H](C)O[C@H]5[C@H](O)[C@H]3O)[C@H]3COC(=O)[C@H]23)OCO4)cc(OC)c1O [Etoposide] | 1210 | 833 | 1120 | 175 | 1930 | 241 | 658 | 1300 | 1490 | 896 | 3230 | 1420 | 3130 | 
CO[C@@]12[C@H](COC(N)=O)C3=C(C(=O)C(C)=C(N)C3=O)N1C[C@@H]1N[C@@H]12 [Mitomycin C] | 3590 | 3690 | 3950 | 2190 | 3760 | 3650 | 3330 |  | 3790 | 2850 | 3080 | 1060 | 2870 | > 10
CN1CC[C@H](c2c(O)cc(O)c3c(=O)cc(-c4ccccc4Cl)oc23)[C@H](O)C1 [Alvocidib] | 185 | 170 | 195 | 185 | 173 | 243 | 219 | 120 | 299 | 614 | 931 | 304 | 484 | 0.194
O=NN(CCCl)C(=O)NCCCl [Carmustine] | > 10000 | > 10000 | > 10000 | > 10000 | > 10000 | > 10000 | > 10000 |  | > 10000 | > 10000 | > 10000 | > 10000 | > 10000 | > 10
CC(=O)N(O)CCCCCNC(=O)CCC(=O)N(O)CCCCCNC(=O)CCC(=O)N(O)CCCCCN [Deferoxamine aq] | 1420 | 1630 |  |  | 1300 | 771 | 1470 |  | 931 | > 10000 | 3040 | > 10000 | > 10000 | 
